The text below walks through data of US20230233569A1 (Revolution Medicines, Inc., priority 2020, published 2023).

The target in experiment [1] is KRAS G12V (Homo sapiens, UniProt P01116+P62937, G12V). Description: Disruption of BRAF RBD interaction with Ras (FRET / MOA assay, with Cyclophilin A). The class given is biochemical. The settings on record: KRAS G12V; read-out: KRAS G12V FRET data IC50. The essentials:
(§1)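 First, compounds at a ten-point threefold dilution series (highest final concentration 30 μM) were incubated with nucleotide-loaded K-Ras, Cyclophilin A and BRAF RBD for 3 h at 25 °C. Next, detection antibodies were added for 1.5 h. Finally, IC50 was calculated from TR-FRET ratio decreases against DMSO controls.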

For experiment [2], the target named is KRAS G13D (Homo sapiens, UniProt P01116+P62937, G13D). The experiment is described as above. The conditions noted are these: KRAS G13D; read-out: KRAS G13D FRET data IC50. Type of experiment: biochemical. The essentials: as §1
KRAS G13D, sequence (P01116 1-169 isoform P01116-2 G13D limits assumed): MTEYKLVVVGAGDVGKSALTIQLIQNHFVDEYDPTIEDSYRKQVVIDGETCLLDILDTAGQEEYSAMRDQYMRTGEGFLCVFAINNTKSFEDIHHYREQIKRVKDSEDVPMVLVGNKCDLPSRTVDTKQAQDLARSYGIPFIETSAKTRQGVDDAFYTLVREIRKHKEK
KRAS G13D, sequence (P62937 whole entry): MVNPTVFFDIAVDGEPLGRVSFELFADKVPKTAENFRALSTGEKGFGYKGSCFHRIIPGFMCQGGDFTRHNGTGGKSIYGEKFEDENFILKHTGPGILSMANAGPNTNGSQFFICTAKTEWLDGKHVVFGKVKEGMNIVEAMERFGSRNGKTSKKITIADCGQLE
In experiment [3] the target is KRAS WT (Homo sapiens, UniProt P01116+P62937). The experiment is described as above. The class given is biochemical. The settings on record: KRAS WT; read-out: KRAS WT FRET data IC50. The essentials: as §1
KRAS WT, sequence (P01116 1-169 isoform P01116-2 limits assumed): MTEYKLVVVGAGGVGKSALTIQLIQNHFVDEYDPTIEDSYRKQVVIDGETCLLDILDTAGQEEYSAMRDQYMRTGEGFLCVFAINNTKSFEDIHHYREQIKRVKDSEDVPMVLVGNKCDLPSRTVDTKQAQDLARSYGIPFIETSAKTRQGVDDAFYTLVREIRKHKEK
KRAS WT, sequence (P62937 whole entry): as the sequence (P62937 whole entry) above
Experiment [4] has as its target KRAS G12C (Homo sapiens, UniProt P01116+P62937, G12C). Described as above. Type of experiment: biochemical. The conditions noted are these: read-out: KRAS G12C FRET data, IC50. The essentials:
as §1

The target of experiment [5] is KRAS G13C (Homo sapiens, UniProt P01116+P62937, G13C). Described as above. The class given is biochemical. The conditions noted are these: read-out: KRAS G13C FRET data, IC50. The essentials: as §1
KRAS G13C, sequence (P01116 1-169 isoform P01116-2 G13C): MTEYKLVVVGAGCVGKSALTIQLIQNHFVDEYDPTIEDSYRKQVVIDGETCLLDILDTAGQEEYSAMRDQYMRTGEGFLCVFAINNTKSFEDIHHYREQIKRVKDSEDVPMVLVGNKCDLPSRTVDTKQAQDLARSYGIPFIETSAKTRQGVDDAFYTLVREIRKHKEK
KRAS G13C, sequence (P62937 whole entry): as the sequence (P62937 whole entry) above
In experiment [6] the target is NRAS G12C (Homo sapiens, UniProt P01111+P62937, G12C). The experiment is described as above. The class given is biochemical. The settings on record: NRAS G12C; read-out: NRAS G12C FRET data IC50.
NRAS G12C, sequence (P01111 whole entry G12C): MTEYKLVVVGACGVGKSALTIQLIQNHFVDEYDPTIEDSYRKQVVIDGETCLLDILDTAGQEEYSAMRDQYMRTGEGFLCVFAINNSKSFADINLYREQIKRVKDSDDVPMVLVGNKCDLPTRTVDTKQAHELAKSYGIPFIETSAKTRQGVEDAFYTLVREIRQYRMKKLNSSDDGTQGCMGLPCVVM
NRAS G12C, sequence (P62937 whole entry): as the sequence (P62937 whole entry) above
Experiment [7] has as its target KRAS G12S (Homo sapiens, UniProt P01116+P62937, G12S). The experiment is described as above. Type of experiment: biochemical. The settings on record: read-out: KRAS G12S FRET data, IC50. A digest of the protocol: as §1
Experiment [8] deals with KRAS G12D (Homo sapiens, UniProt P01116+P62937, G12D). The description is as above. Type of experiment: biochemical. The conditions noted are these: read-out: KRAS G12D FRET data, IC50. The essentials:
as §1

The test system of experiment [9] is NCI-H358 (K-Ras G12C). Description: CellTiter-Glo cell viability assay, 5-day treatment. The class given is cell-based. The settings on record: Homo sapiens, NCI-H358, 120 h, 5-day treatment; read-out: H358 Cell Viability assay data (K-Ras G12C, IC50). The essentials:
(§2)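 Viability is read as luminescence on day 5 after direct compound addition to plated cells, following about 30 minutes' room-temperature equilibration. Each signal is scaled to mean DMSO as 100%.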
Background: In ATP-based viability assays light output follows the ATP content of the culture.

The subject of experiment [10] is Capan-1 (K-Ras G12V). The experiment is described as above. The conditions noted are these: Homo sapiens, CAPAN-1, 120 h, 5-day treatment; read-out: Capan-1 Cell Viability assay data (K-Ras G12V, IC50). The class given is cell-based. A digest of the protocol:
as §2

SMILES strings stand for the structures. pIC50: −log10 of the molar value. Several values for one entry are separate records, joined by “and”; a condition that tells them apart may be missing. Equal values may be shown once.

KRAS G12V, sequence (P01116 1-169 isoform P01116-2 G12V limits assumed): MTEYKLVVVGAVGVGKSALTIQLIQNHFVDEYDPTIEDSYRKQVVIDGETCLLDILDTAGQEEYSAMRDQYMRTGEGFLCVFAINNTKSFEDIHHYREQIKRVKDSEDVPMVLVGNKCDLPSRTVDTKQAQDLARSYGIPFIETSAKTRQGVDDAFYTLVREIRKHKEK
KRAS G12V, sequence (P62937 whole entry): as the sequence (P62937 whole entry) above
KRAS G12C, sequence (P01116 1-169 isoform P01116-2 G12C): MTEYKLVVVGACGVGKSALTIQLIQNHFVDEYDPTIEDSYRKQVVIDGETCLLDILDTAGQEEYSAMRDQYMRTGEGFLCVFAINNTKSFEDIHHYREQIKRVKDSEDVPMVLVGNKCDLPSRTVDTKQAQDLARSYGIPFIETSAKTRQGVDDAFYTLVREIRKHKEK
KRAS G12C, sequence (P62937 whole entry): as the sequence (P62937 whole entry) above
KRAS G12D, sequence (P01116 1-169 isoform P01116-2 G12D limits assumed): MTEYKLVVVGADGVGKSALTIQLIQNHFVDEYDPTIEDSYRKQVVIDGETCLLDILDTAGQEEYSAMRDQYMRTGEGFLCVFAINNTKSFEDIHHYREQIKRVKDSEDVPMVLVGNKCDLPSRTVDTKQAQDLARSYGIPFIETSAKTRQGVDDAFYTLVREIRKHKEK
KRAS G12D, sequence (P62937 whole entry): as the sequence (P62937 whole entry) above
KRAS G12S, sequence (P01116 1-169 isoform P01116-2 G12S limits assumed): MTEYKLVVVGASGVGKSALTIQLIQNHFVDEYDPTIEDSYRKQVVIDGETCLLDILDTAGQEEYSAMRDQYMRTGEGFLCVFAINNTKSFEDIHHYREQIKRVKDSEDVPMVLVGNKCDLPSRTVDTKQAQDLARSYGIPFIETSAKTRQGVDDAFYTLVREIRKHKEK
KRAS G12S, sequence (P62937 whole entry): as the sequence (P62937 whole entry) above

For orientation: pIC50 means −log10 of the IC50, conventionally taken in molar units. Regarding `CCN1CC(C(=O)N(C)[C@H](C(=O)N[C@H]2Cc3cc(O)cc(c3)-c3ccc4c(c3)c(c(-c3cccnc3[C@H](C)OC)n4CC)CC(C)(C)COC(=O)[C@@H]3CCCN(N3)C2=O)C(C)C)CC1=O` (some centres unmarked) [Example A248], the pIC50 was 6.00 to 7.00 and 7.00 to 8.00 in experiment [1]; 6.00 to 7.00 and 7.00 to 8.00 in experiment [2]; 6.00 to 7.00 and 7.00 to 8.00 in [3]; 7.00 to 8.00 in experiment [4]; 7.00 to 8.00 in [5]; 7.00 to 8.00 in [6]. The pIC50 in experiment [7] was 7.00 to 8.00; in experiment [8], 6.00 to 7.00; in experiment [9] it was 7.00 to 8.00; in experiment [10], 6.00 to 7.00.

On to `CCn1c(-c2cccnc2[C@H](C)OC)c2c3cc(ccc31)-c1cc(O)cc(c1)C[C@H](NC(=O)[C@H](C(C)C)N(C)C(=O)C1(N)CC1)C(=O)N1CCC[C@H](N1)C(=O)OCC(C)(C)C2` [Example A168], for which the pIC50 was 6.00 to 7.00 in experiment [1]; 6.00 to 7.00 in [2]; 7.00 to 8.00 in [3]; 7.00 to 8.00 in [4]; 7.00 to 8.00 in [5]; 7.00 to 8.00 in experiment [6]. For the same molecule, the pIC50 in experiment [7], in experiment [8], in [9] and in [10] was 6.00 to 7.00 each time.

In the case of `CCn1c(-c2cccnc2[C@H](C)OC)c2c3cc(ccc31)-c1cc(O)cc(c1)C[C@H](NC(=O)[C@H](C(C)C)N(C)C(=O)[C@@H]1C[C@H]1C)C(=O)N1CCC[C@H](N1)C(=O)OCC(C)(C)C2` [Example A147], the pIC50 in experiment [1] is 7.00 to 8.00; in [2], 6.00 to 7.00; in experiment [3], 7.00 to 8.00; in [4], 7.00 to 8.00; in [5] it was 7.00 to 8.00; in [6], 7.00 to 8.00. Also, the pIC50 in experiment [7] was 7.00 to 8.00; in experiment [8], 6.00 to 7.00; in experiment [9] it was 7.00 to 8.00; in experiment [10], 6.00 to 7.00.

With `CCn1c(-c2cccnc2[C@H](C)OC)c2c3cc(ccc31)-c1cc(O)cc(c1)C[C@H](NC(=O)[C@H](C(C)C)N(C)C(=O)[C@H]1CCN(C(=O)[C@]3(C)CCCN3C)C1)C(=O)N1CCC[C@H](N1)C(=O)OCC(C)(C)C2` [Example A342], the pIC50 is 7.00 to 8.00 in experiment [6], 7.00 to 8.00 in experiment [9] and 6.00 to 7.00 in [10].

`CCn1c(-c2cnccc2[C@H](C)OC)c2c3cc(ccc31)-c1cc(O)cc(c1)C[C@H](NC(=O)[C@H](C(C)C)N(C)C(C)=O)C(=O)N1CCC[C@H](N1)C(=O)OCC(C)(C)C2` [Example A21]: the pIC50 was 6.00 to 7.00 in experiment [1]; 6.00 to 7.00 in experiment [2]; 6.00 to 7.00 in experiment [3]; 6.00 to 7.00 in experiment [4]; 7.00 to 8.00 in experiment [5]; 6.00 to 7.00 in experiment [6]. The pIC50 was 6.00 to 7.00 in experiment [7], 5.00 to 6.00 in experiment [8], 6.00 to 7.00 in experiment [9] and 6.00 to 7.00 in experiment [10].

On to `CCn1c(-c2cccnc2[C@H](C)OC)c2c3cc(ccc31)-c1cc(O)cc(c1)C[C@H](NC(=O)[C@H](C(C)C)N(C)C(=O)C1CC3CC1CN3)C(=O)N1CCC[C@H](N1)C(=O)OCC(C)(C)C2` (some centres unmarked) [Example A133], for which the pIC50 in experiment [1] was 5.00 to 6.00; in experiment [2] it was 7.00 to 8.00; in experiment [3], 6.00 to 7.00; in experiment [4], 6.00 to 7.00; in [5], 7.00 to 8.00; in experiment [6], 6.00 to 7.00. Further, the pIC50 in experiment [7] is 6.00 to 7.00; in [8], 7.00 to 8.00; in experiment [9], less than 5.00; in [10], less than 5.00.

For the molecule `CCn1c(-c2cccnc2[C@H](C)OC)c2c3cc(ccc31)-c1csc(n1)C[C@H](NC(=O)[C@H](C(C)C)N(C)C(=O)[C@@H]1OCC[C@@H]1C)C(=O)N1CCC[C@H](N1)C(=O)OCC(C)(C)C2` [Example A143], the pIC50 in experiment [1], in [2], in [3], in experiment [4], in experiment [5] and in [6] was 5.00 to 6.00 throughout. Besides, the negative-log IC50 (pIC50) in experiment [7] was 5.00 to 6.00; in [8], less than 5.00; in experiment [9], 6.00 to 7.00; in experiment [10], 6.00 to 7.00.

As to `CCn1c(-c2cccnc2[C@H](C)OC)c2c3cc(ccc31)-c1cc(O)cc(c1)C[C@H](NC(=O)[C@H](C(C)C)N(C)C(=O)[C@H]1C[C@H]1F)C(=O)N1CCC[C@H](N1)C(=O)OCC(C)(C)C2` [Example A162], the pIC50 in [1], in experiment [9] and in experiment [10] was 7.00 to 8.00 throughout.

With `CCn1c(-c2cccnc2[C@H](C)OC)c2c3cc(ccc31)-c1cc(O)cc(c1)C[C@H](NC(=O)[C@H](C(C)C)N(C)C(=O)C1(CN)CC1)C(=O)N1CCC[C@H](N1)C(=O)OCC(C)(C)C2` [Example A139], the pIC50 is 7.00 to 8.00 in experiment [1]; 7.00 to 8.00 in experiment [6]; 7.00 to 8.00 in experiment [7]; 6.00 to 7.00 in [9]; 6.00 to 7.00 in experiment [10].

For the molecule `CCn1c(-c2cccnc2[C@H](C)OC)c2c3cc(ccc31)-c1cc(O)cc(c1)C[C@H](NC(=O)[C@H](C(C)C)N(C)C(=O)[C@H]1CCN(C(=O)[C@@]3(C)CCCN3)C1)C(=O)N1CCC[C@H](N1)C(=O)OCC(C)(C)C2` [Example A135], the pIC50 in experiment [1], in experiment [2], in experiment [3], in [4], in [5] and in experiment [6] was 7.00 to 8.00 in each case. In addition, the values for the pIC50 in experiment [7], in experiment [8] and in [10] were 7.00 to 8.00, 7.00 to 8.00 and 5.00 to 6.00, respectively.

For the molecule `CCn1c(-c2cccnc2[C@H](C)OC)c2c3cc(ccc31)-c1cc(O)cc(c1)C[C@H](NC(=O)[C@@H](NC(C)=O)C(C)(C)OC)C(=O)N1CCC[C@H](N1)C(=O)OCC(C)(C)C2` (racemic) [Example A172], the pIC50 is less than 5.00 in experiment [1]; less than 5.00 in experiment [2]; less than 5.00 in [3]; less than 5.00 in experiment [4]; 5.00 to 6.00 in experiment [5]; less than 5.00 in [6]. For the same molecule, the negative logarithm of the IC50 (pIC50) in [7], in [8] and in experiment [10] was less than 5.00 each time.

For `CCn1c(-c2cnccc2COC)c2c3cc(ccc31)-c1cc(O)cc(c1)C[C@H](NC(=O)[C@H]([C@@H](C)OC)N(C)C(C)=O)C(=O)N1CCC[C@H](N1)C(=O)OCC(C)(C)C2` [Example A76], the pIC50 in experiment [1], in experiment [2], in [3], in experiment [4], in experiment [5] and in experiment [6] was 6.00 to 7.00 in each case. Moreover, the results for the negative logarithm of the IC50 (pIC50) in experiment [7], in experiment [8] and in experiment [10] were 6.00 to 7.00, 5.00 to 6.00 and 5.00 to 6.00, respectively.

As to `CCn1c(-c2cccnc2[C@H](C)OC)c2c3cc(ccc31)-c1cccc(c1)C[C@H](NC(=O)[C@H](C(C)C)N(C)C(=O)[C@H]1CCN(CCO)C1)C(=O)N1CCC[C@H](N1)C(=O)OCC(C)(C)C2` [Example A109], the pIC50 in [1] was less than 5.00; in [2], 5.00 to 6.00; in experiment [3], 5.00 to 6.00; in [4], 5.00 to 6.00; in experiment [5] it was 6.00 to 7.00; in experiment [6], 5.00 to 6.00. Moreover, the pIC50 was 5.00 to 6.00 in experiment [7], 5.00 to 6.00 in experiment [8] and less than 5.00 in experiment [10].
